# Test results taken from PMC2747684, “Sustained antiproliferative mechanisms by RB24, a targeted precursor of multiple inhibitors of epidermal growth factor receptor and a DNA alkylating agent in the A431 epidermal carcinoma of the vulva cell line” (British Journal of Cancer, 2004).
# pIC50: −log10 of the molar value.
# Key:
# [1] = target: T1, epidermal growth factor receptor (EGFR) (Homo sapiens, UniProt P00533)
# [2] = target: T1, epidermal growth factor receptor (EGFR); assay: EGF-induced EGFR autophosphorylation in A431 cells (Western blot), with washout reversibility assay; type: cell-based
# T1 sequence (P00533 25-1210): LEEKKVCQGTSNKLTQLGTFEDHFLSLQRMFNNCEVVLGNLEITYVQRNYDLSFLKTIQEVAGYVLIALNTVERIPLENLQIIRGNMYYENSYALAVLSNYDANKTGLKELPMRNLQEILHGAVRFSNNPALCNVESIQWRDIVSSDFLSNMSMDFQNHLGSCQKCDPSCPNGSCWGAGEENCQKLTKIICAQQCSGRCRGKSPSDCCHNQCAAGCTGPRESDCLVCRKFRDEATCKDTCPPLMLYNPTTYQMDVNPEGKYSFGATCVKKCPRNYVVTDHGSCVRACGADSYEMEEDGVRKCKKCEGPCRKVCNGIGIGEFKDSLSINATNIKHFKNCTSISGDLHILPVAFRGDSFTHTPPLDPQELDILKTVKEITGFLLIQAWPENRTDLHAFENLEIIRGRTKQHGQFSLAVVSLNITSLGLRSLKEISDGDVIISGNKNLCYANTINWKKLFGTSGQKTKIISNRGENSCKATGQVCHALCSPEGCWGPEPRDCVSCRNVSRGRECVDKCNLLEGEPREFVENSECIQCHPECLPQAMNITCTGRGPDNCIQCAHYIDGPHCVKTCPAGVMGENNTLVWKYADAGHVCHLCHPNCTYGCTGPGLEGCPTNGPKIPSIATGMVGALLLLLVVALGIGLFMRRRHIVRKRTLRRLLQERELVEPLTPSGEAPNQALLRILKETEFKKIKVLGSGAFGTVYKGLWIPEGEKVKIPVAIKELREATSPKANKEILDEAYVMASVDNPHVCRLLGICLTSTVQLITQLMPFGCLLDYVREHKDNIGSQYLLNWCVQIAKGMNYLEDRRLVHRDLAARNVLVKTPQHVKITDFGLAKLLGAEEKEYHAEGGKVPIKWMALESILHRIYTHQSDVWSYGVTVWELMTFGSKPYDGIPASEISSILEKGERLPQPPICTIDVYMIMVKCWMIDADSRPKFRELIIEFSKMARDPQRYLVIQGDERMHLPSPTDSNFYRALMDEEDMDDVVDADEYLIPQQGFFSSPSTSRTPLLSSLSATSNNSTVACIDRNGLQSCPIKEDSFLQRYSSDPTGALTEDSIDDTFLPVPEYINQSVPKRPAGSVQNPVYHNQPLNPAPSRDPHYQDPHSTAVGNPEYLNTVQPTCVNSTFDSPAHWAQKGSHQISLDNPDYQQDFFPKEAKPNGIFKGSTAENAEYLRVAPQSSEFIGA
pIC50 [2],Structure (SMILES),"EGFR autophosphorylation in A431 cells at 30 μM, before and after washout (Weste) [1]"
,Nc1ccc2ncnc(Nc3cccc(Br)c3)c2c1 [RB10],"the naked inhibitor, RB10, was shown to have completely reversible inhibition of EGFR autophosphorylation"
,CN(CO)/N=N/c1ccc2ncnc(Nc3cccc(Br)c3)c2c1 [RB14],"irreversible inhibition was observed in cells exposed to the daughter molecules, RB14 and ZR08"
~5.70,CC(=O)OCN(C)/N=N/c1ccc2ncnc(Nc3cccc(Br)c3)c2c1 [RB24],
